The results in this text go back to patent US11802111B2, “Cyclobutyl amide monoacylglycerol lipase modulators” (Janssen Pharmaceutica NV, priority 2020, dated 2023).

This assay deals with human MGL from HeLa cells (Homo sapiens (Human), UniProt Q99685). Kind of assay: MGL in vitro activity assay ([glycerol-1,3-3H]-oleoyl glycerol hydrolysis, activated carbon filtration). The note with it: 300 nM [Glycerol-1,3-3H]-oleoyl glycerol, one hour. In kind it is biochemical. In outline: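 Endogenous human MGL in HeLa cells/homogenates incubated 1 h with test compounds and 300 nM [glycerol-1,3-3H]-oleoyl glycerol. Released 3H-glycerol passing an activated carbon filter counted as activity; screening at 10 μM compound, top IC50 concentration set empirically.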
Chain of human MGL from HeLa cells (Q99685 whole entry): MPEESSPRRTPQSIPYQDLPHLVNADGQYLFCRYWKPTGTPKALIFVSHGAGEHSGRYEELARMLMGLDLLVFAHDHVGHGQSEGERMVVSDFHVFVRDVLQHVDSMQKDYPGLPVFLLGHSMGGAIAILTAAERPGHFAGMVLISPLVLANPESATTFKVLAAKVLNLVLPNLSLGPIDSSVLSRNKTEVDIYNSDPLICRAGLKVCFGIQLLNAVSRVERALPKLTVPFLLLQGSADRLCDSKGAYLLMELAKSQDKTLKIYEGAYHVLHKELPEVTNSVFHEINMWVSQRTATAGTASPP
Take `C[C@]1(O)C[C@@H](C(=O)N2CC3(CCC(c4ccc5c(c4)CCC5)CC3)C2)C1` [Example 127, (7-(2,3-Dihydro-1H-inden-5-yl)-2-azaspiro[3.5]nonan-2-yl)((1s,3s)-3-hydroxy-3-methylcyclobutyl)methanone]: the half-maximal inhibitory concentration (IC50) is 14 nM.
As for `COc1cc(C)cc(C2CCC3(CC2)CN(C(=O)[C@H]2C[C@@](C)(O)C2)C3)c1` [Example 128, ((1s,3s)-3-Hydroxy-3-methylcyclobutyl)(7-(3-methoxy-5-methylphenyl)-2-azaspiro[3.5]nonan-2-yl)methanone], the figure is 30 nM; as for `COc1cc(C2CCC3(CC2)CN(C(=O)[C@H]2C[C@@](C)(O)C2)C3)ccc1C` [Example 129, ((1s,3s)-3-Hydroxy-3-methylcyclobutyl)(7-(3-methoxy-4-methylphenyl)-2-azaspiro[3.5]nonan-2-yl)methanone], 25 nM.
`CC(C)c1ccc(C2CCC3(CC2)CN(C(=O)[C@H]2C[C@@](C)(O)C2)C3)cc1` [Example 130, ((1s,3s)-3-Hydroxy-3-methylcyclobutyl)(7-(4-isopropylphenyl)-2-azaspiro[3.5]nonan-2-yl)methanone] yielded a half-inhibitory concentration (IC50) of 17 nM.
As for `COc1cccc(C2CCC3(CC2)CN(C(=O)[C@H]2C[C@@](C)(O)C2)C3)c1` [Example 131, ((1s,3s)-3-Hydroxy-3-methylcyclobutyl)(7-(3-methoxyphenyl)-2-azaspiro[3.5]nonan-2-yl)methanone], the figure is 32 nM; as for `CCOc1cccc(C2CCC3(CC2)CN(C(=O)[C@H]2C[C@@](C)(O)C2)C3)c1` [Example 132, (7-(3-Ethoxyphenyl)-2-azaspiro[3.5]nonan-2-yl)((1s,3s)-3-hydroxy-3-methylcyclobutyl)methanone], 41 nM; as for `CC(C)c1cccc(C2CCC3(CC2)CN(C(=O)[C@H]2C[C@@](C)(O)C2)C3)c1` [Example 133, ((1s,3s)-3-Hydroxy-3-methylcyclobutyl)(7-(3-isopropylphenyl)-2-azaspiro[3.5]nonan-2-yl)methanone], 8.2 nM.
In the case of `Cc1ccc(C2CCC3(CC2)CN(C(=O)[C@H]2C[C@@](C)(O)C2)C3)cc1C` [Example 134, (7-(3,4-Dimethylphenyl)-2-azaspiro[3.5]nonan-2-yl)((1s,3s)-3-hydroxy-3-methylcyclobutyl)methanone] it was 12 nM; in that of `CC(C)(C)c1cccc(C2CCC3(CC2)CN(C(=O)[C@H]2C[C@@](C)(O)C2)C3)c1` [Example 135, (7-(3-(tert-Butyl)phenyl)-2-azaspiro[3.5]nonan-2-yl)((1s,3s)-3-hydroxy-3-methylcyclobutyl)methanone], 2.1 nM; in that of `Cc1ccc(C2CCC3(CC2)CN(C(=O)[C@H]2C[C@@](C)(O)C2)C3)cc1` [Example 136, ((1s,3s)-3-Hydroxy-3-methylcyclobutyl)(7-(p-tolyl)-2-azaspiro[3.5]nonan-2-yl)methanone], 35 nM.
`Cc1cccc(C2CCC3(CC2)CN(C(=O)[C@H]2C[C@@](C)(O)C2)C3)c1` [Example 137, ((1s,3s)-3-Hydroxy-3-methylcyclobutyl)(7-(m-tolyl)-2-azaspiro[3.5]nonan-2-yl)methanone]: 38 nM corresponded to half-maximal inhibition (IC50). This IC50 and that of the compound before are within 1.5-fold of each other.
As for `Cc1ccccc1C1CCC2(CC1)CN(C(=O)[C@H]1C[C@@](C)(O)C1)C2` [Example 138, ((1s,3s)-3-Hydroxy-3-methylcyclobutyl)(7-(o-tolyl)-2-azaspiro[3.5]nonan-2-yl)methanone], the figure is 47 nM.
In the case of `CC(C)(C)c1cc(C2CCC3(CC2)CN(C(=O)[C@H]2C[C@@](C)(O)C2)C3)ccn1` [Example 139, (7-(2-(tert-Butyl)pyridin-4-yl)-2-azaspiro[3.5]nonan-2-yl)((1s,3s)-3-hydroxy-3-methylcyclobutyl)methanone] it was 167 nM; in that of `COc1cc(C2CCC3(CC2)CN(C(=O)[C@H]2C[C@@](C)(O)C2)C3)ccc1C1CC1` [Example 140, (7-(4-Cyclopropyl-3-methoxyphenyl)-2-azaspiro[3.5]nonan-2-yl)((1s,3s)-3-hydroxy-3-methylcyclobutyl)methanone], 33 nM.
As for `COc1cc(C2CC2)cc(C2CCC3(CC2)CN(C(=O)[C@H]2C[C@@](C)(O)C2)C3)c1` [Example 141, (7-(3-Cyclopropyl-5-methoxyphenyl)-2-azaspiro[3.5]nonan-2-yl)((1s,3s)-3-hydroxy-3-methylcyclobutyl)methanone], the figure is 20 nM; as for `COc1ccc(C2CCC3(CC2)CN(C(=O)[C@H]2C[C@@](C)(O)C2)C3)cc1C1CC1` [Example 142, (7-(3-Cyclopropyl-4-methoxyphenyl)-2-azaspiro[3.5]nonan-2-yl)((1s,3s)-3-hydroxy-3-methylcyclobutyl)methanone], 121 nM.
On to `Cc1cc(C2CC2)cc(C2CCC3(CC2)CN(C(=O)[C@H]2C[C@@](C)(O)C2)C3)c1` [Example 143, (7-(3-Cyclopropyl-5-methylphenyl)-2-azaspiro[3.5]nonan-2-yl)((1s,3s)-3-hydroxy-3-methylcyclobutyl)methanone], for which half-maximal inhibition (IC50) was put at 4.5 nM. Compared with the last compound, the IC50 is about 27-fold lower.
`CCc1cccc(C2CCC3(CC2)CN(C(=O)[C@H]2C[C@@](C)(O)C2)C3)c1OC` [Example 144, (7-(3-Ethyl-2-methoxyphenyl)-2-azaspiro[3.5]nonan-2-yl)((1s,3s)-3-hydroxy-3-methylcyclobutyl)methanone] gave a half-maximal inhibitory concentration (IC50) of 16 nM.
Take `CCc1cc(OC)cc(C2CCC3(CC2)CN(C(=O)[C@H]2C[C@@](C)(O)C2)C3)c1` [Example 145, (7-(3-Ethyl-5-methoxyphenyl)-2-azaspiro[3.5]nonan-2-yl)((1s,3s)-3-hydroxy-3-methylcyclobutyl)methanone]: the midpoint of inhibition, the IC50, lay at 31 nM.
The compound `CCc1cc(C2CCC3(CC2)CN(C(=O)[C@H]2C[C@@](C)(O)C2)C3)cc(C(F)(F)F)c1` [Example 146, (7-(3-Ethyl-5-(trifluoromethyl)phenyl)-2-azaspiro[3.5]nonan-2-yl)((1s,3s)-3-hydroxy-3-methylcyclobutyl)methanone] had an IC50 of 4.6 nM. Compared with the last compound, the IC50 is about 6.7-fold lower.
With `Cc1cc(C)cc(C2CCC3(CC2)CN(C(=O)[C@H]2C[C@@](C)(O)C2)C3)c1` [Example 147, (7-(3,5-Dimethylphenyl)-2-azaspiro[3.5]nonan-2-yl)((1s,3s)-3-hydroxy-3-methylcyclobutyl)methanone], the IC50 amounted to 6.4 nM. The IC50 values of the last two compounds are within 1.5-fold of each other.
On to `CCc1cc(OC(F)(F)F)cc(C2CCC3(CC2)CN(C(=O)[C@H]2C[C@@](C)(O)C2)C3)c1` [Example 148, (7-(3-Ethyl-5-(trifluoromethoxy)phenyl)-2-azaspiro[3.5]nonan-2-yl)((1s,3s)-3-hydroxy-3-methylcyclobutyl)methanone], for which the IC50 came to 9.4 nM.
In the case of `C[C@]1(O)C[C@@H](C(=O)N2CC3(CCC(c4cc(Cl)cc(OC(F)(F)F)c4)CC3)C2)C1` [Example 149, (7-(3-Chloro-5-(trifluoromethoxy)phenyl)-2-azaspiro[3.5]nonan-2-yl)((1s,3s)-3-hydroxy-3-methylcyclobutyl)methanone] it was 1.7 nM; in that of `CCOc1ccc(C2CCC3(CC2)CN(C(=O)[C@H]2C[C@@](C)(O)C2)C3)cc1C(F)(F)F` [Example 150, (7-(4-Ethoxy-3-(trifluoromethyl)phenyl)-2-azaspiro[3.5]nonan-2-yl)((1s,3s)-3-hydroxy-3-methylcyclobutyl)methanone], 17 nM; in that of `CC(C)c1cccc(C2(O)CCC3(CC2)CN(C(=O)[C@H]2C[C@@](C)(O)C2)C3)c1` [Example 151, ((1s,3s)-3-Hydroxy-3-methylcyclobutyl)(7-hydroxy-7-(3-isopropylphenyl)-2-azaspiro[3.5]nonan-2-yl)methanone], 4.6 nM.
Compound `CC(C)(C)c1cccc(C2CC3(CCN(C(=O)[C@H]4C[C@@](C)(O)C4)CC3)C2)c1` [Example 153, (2-(3-(tert-Butyl)phenyl)-7-azaspiro[3.5]nonan-7-yl)((1s,3s)-3-hydroxy-3-methylcyclobutyl)methanone] yielded an IC50 of 22 nM.
The compound `Cc1c(CC2CC3(C2)CN(C(=O)[C@H]2C[C@@](C)(O)C2)C3)cccc1C1CC1` [Example 154, (6-(3-Cyclopropyl-2-methylbenzyl)-2-azaspiro[3.3]heptan-2-yl)((1s,3s)-3-hydroxy-3-methylcyclobutyl)methanone] came in with a half-inhibitory concentration (IC50) of 1.7 nM.
As for `Cc1c(CC2CC3(C2)CN(C(=O)[C@H]2C[C@@](C)(O)C2)C3)cccc1C(F)(F)F` [Example 155, ((1s,3s)-3-Hydroxy-3-methylcyclobutyl)(6-(2-methyl-3-(trifluoromethyl)benzyl)-2-azaspiro[3.3]heptan-2-yl)methanone], the IC50 stood at 3 nM.
In the case of `Cc1cccc(CC2CC3(C2)CN(C(=O)[C@H]2C[C@@](C)(O)C2)C3)c1C` [Example 156, (6-(2,3-Dimethylbenzyl)-2-azaspiro[3.3]heptan-2-yl)((1s,3s)-3-hydroxy-3-methylcyclobutyl)methanone] it was 11 nM; in that of `C[C@]1(O)C[C@@H](C(=O)N2CC3(CC(Cc4cccc(OC(F)F)c4)C3)C2)C1` [Example 157, (6-(3-(Difluoromethoxy)benzyl)-2-azaspiro[3.3]heptan-2-yl)((1s,3s)-3-hydroxy-3-methylcyclobutyl)methanone], 29 nM.
In the case of `CCc1ccccc1CC1CC2(C1)CN(C(=O)[C@H]1C[C@@](C)(O)C1)C2` [Example 158, (6-(2-Ethylbenzyl)-2-azaspiro[3.3]heptan-2-yl)((1s,3s)-3-hydroxy-3-methylcyclobutyl)methanone] it was 9.2 nM.
In the case of `Cc1cccc(CC2CCC3(CC2)CN(C(=O)[C@H]2C[C@@](C)(O)C2)C3)c1` [Example 159, ((1s,3s)-3-Hydroxy-3-methylcyclobutyl)(7-(3-methylbenzyl)-2-azaspiro[3.5]nonan-2-yl)methanone] it was 31 nM; in that of `C[C@]1(O)C[C@@H](C(=O)N2CC3(CCC(Cc4cccc(OC(F)F)c4)CC3)C2)C1` [Example 160, (7-(3-(Difluoromethoxy)benzyl)-2-azaspiro[3.5]nonan-2-yl)((1s,3s)-3-hydroxy-3-methylcyclobutyl)methanone], 38 nM.
